Entries after “also recorded” stand apart in the source; their conditions may differ.
Assays:
[1] = tested on: pancreas; experiment: in vivo homing of phage displaying peptides to pancreas; design: species or system mice
Description: (§1) For lung and pancreas, a mixture of phage libraries containing 10^10 TU was diluted in 200 μl DMEM and injected into the tail vein of anesthetized BALB/c mice (2 month old; Harlan Sprague Dawley; San Diego Calif.); AVERTIN (0.017 ml/g) was used as anesthetic (Pasqualini and Ruoslahti, supra, 1996). After 1-4 minutes, mice were snap frozen in liquid nitrogen or, after about 5 minutes of phage circulation, the mice were perfused through the heart with 5-10 ml of DMEM (SIGMA; St. Louis Mo.). To recover the phage, the organs from the perfused mice or partially thawed organs from snap frozen mice were collected and weighed, then were homogenized in 1 ml DMEM-PI (DMEM containing protease inhibitors (PI); phenylmethyl sulfonyl fluoride (PMSF; 1 mM), aprotinin (20 μg/ml), leupeptin (1 μg/ml)).
(§2) Organ samples were washed 3 times with ice cold DMEM-PI containing 1% bovine serum albumin (BSA), then directly incubated with 1 ml K91-kan bacteria for 1 hr. Ten ml NZY medium containing 0.2 μg/ml tetracycline (NZY/tet) was added to the bacterial culture, the mixture was incubated in a 37° C. shaker for 1 hr, then 200 μl aliquots were plated in agar plates containing 40 μg/ml tetracycline (tet/agar).
(§3) Approximately 250 to 300 individual bacterial colonies containing phage recovered from the various organs or tissues were grown for 16 hr in 5 ml NZY/tet. In some experiments, approximately 1000 individual bacteria containing phage were picked and the phage were amplified in 2 ml of NZY/tet or the entire plate containing phage was scraped, pooled and grown in bulk and processed for injection. Where phage were cultured separately, the cultures were pooled and the phage were injected into mice or rats as described above for a second round of in vivo panning. In some experiments, a third or fourth round of panning was performed. Phage DNA was purified from individual bacterial colonies obtained and the DNA sequences encoding the peptides expressed by selected phage were determined (see Koivunen et al., supra, 1994b).
After two or three rounds of in vivo panning of mice injected with a cyclic CX7C (SEQ ID NO: 24) phage display library, various pancreas homing peptides were identified (Table 3). In particular, the peptide sequence SWCEPGWCR (SEQ ID NO: 4) appeared repeatedly in the pancreas. To determine the specificity of SWCEPGWCR (SEQ ID NO: 4), a phage displaying the sequence was amplified individually, diluted to the same input titer and administered to mice. Following administration, control brain organ was removed and the number of TU of phage in each pancreas and was determined.

[2] = tested on: uterus; experiment: homing of pancreas homing phage to uterus; format: in vivo, mice
Description: (§4) Similar experiments were performed in pancreas using phage displaying the pancreas homing peptide, SWCEPGWCR (SEQ ID NO: 4). In these experiments, histological samples of the pancreas as well as control organs and tissues including lung and skin were prepared and examined by immunostaining as described above. […] Moreover, after intravenous injection of phage displaying SWCEPGWCR (SEQ ID NO: 4), the phage was recovered from uterus at a 6× higher level in comparison to unselected phage. Thus, SWCEPGWCR (SEQ ID NO: 4) homes to both pancreas and uterus.

[3] = tested on: pancreas; experiment: immunohistologic analysis of pancreas homing phage; format: in vivo, mice
Description: Phage displaying homing peptides were detected in lung, pancreas and skin by immunostaining histologic sections obtained 5 min after administration of phage expressing a lung, pancreas or skin homing peptide (“peptide-phage”) to a mouse. Following administration of the peptide-phage, mice were handled as described above and various organs, including lung, pancreas and skin, were removed and fixed in Bouin's solution (SIGMA). Histologic sections were prepared and reacted with anti-M13 (phage) antibodies (Pharmacia Biotech; see U.S. Pat. No. 5,622,699, supra, 1997; Pasqualini and Ruoslahti, supra, 1996). Visualization of the bound anti-M13 antibody was performed using a second antibody conjugated to peroxidase (SIGMA) according to the manufacturer's instructions.
as §4

[4] = tested on: adrenal gland; experiment: in vivo panning of X7 library, adrenal gland; design: species or system mice
Description: (§5) Following various in vivo panning screens, hundreds of thousands to millions of phage expressing homing peptides were recovered from the respective organ or tissue. Generally, the phage collected from a round of in vivo panning were plated on agar, about 250 to 300 clones were selected, grown in 5 ml cultures, then pooled and readministered for a subsequent round of in vivo panning (“regular method”). However, in some experiments, 1000 clones were selected, grown in 2 ml cultures, then pooled and administered for a subsequent round of screening; or the entire agar plate was scraped and all of the phage were cultured together and administered for a subsequent round of screening. The peptide inserts of various isolated phage were determined such that, of the millions of phage that homed, only a small number of sequences were identified.
The invention also provides adrenal gland homing peptides such as LMLPRAD (SEQ ID NO: 27) and LPRYLLS (SEQ ID NO: 28), which share a LPR motif (see Table 11), or the peptides R(Y/F)LLAGG (SEQ ID NO: 404) and RYPLAGG (SEQ ID NO: 389), which share the motif LAGG (SEQ ID NO: 430; see Table 10). The exemplified adrenal gland homing peptides were identified by injection of an X7 (SEQ ID NO: 29) library into mice. The peptides were isolated by the regular method.
as §2
Approximately 250 to 300 individual bacterial colonies containing phage recovered from the various organs or tissues were grown for 16 hr in 5 ml NZY/tet. […] Phage DNA was purified from individual bacterial colonies obtained and the DNA sequences encoding the peptides expressed by selected phage were determined (see Koivunen et al., supra, 1994b).

[5] = tested on: liver; experiment: in vivo panning of X7 library, liver; design: species or system mice
Description: as §5
Also provided are liver homing peptides. Such peptides were identified by injection of an X7 (SEQ ID NO: 29) library into mice. The peptides were isolated by the regular method (see Example II, Table 1, and Table 11, below).
as §2
as §3, with “Where phage were cultured separately, the cultures were pooled and the phage were injected into mice or rats as described above for a second round of in vivo panning. In some experiments, a third or fourth round of panning was performed.” left out

[6] = tested on: lung; experiment: in vivo homing of phage displaying peptides to lung; design: species or system mice
Description: as §1, §2, §3
After two or three rounds of in vivo panning of mice injected with a cyclic CX3CX3CX3C (SEQ ID NO: 25) or a cyclic CX6C (SEQ ID NO: 26) phage display library, four peptides that homed to lung were identified.
To determine the specificity of lung homing of the individual peptides identified, phage displaying the peptides were amplified individually, diluted to the same input titer and administered to mice. Following administration, control kidney and brain organ was removed and the number of TU of phage in lung, kidney and brain was determined. The results shown in FIG. 2 reveal that 10× and 35× more phage having the peptide sequence CGFECVRQCPERC (SEQ ID NO: 1; GFE-1) bound to lung than to kidney and brain, respectively. […] The lung homing peptides CGFECVRQCPERC (SEQ ID NO: 1; GFE-1), CGFELETC (SEQ ID NO: 2; GFE-2), CTLRDRNC (SEQ ID NO: 15) and CIGEVEVC (SEQ ID NO: 16) are enriched in lung at 35×, 9×, 6× and 5×, respectively, over unselected phage (see FIG. 2).

[7] = molecular target: T1, murine MDP (Mus musculus, UniProt P31428); experiment: phage binding to COS-1 cells transfected with MDP; settings: 5×10^6 COS-1 cells, 10^10 TU phage
T1 construct: The amplified 1.3 kb murine MDP cDNA was digested with KpnI and XbaI, and inserted into the same sites of the pcDNA3 expression vector; expressed in transfected cells; host or cells: COS-1 cells, pcDNA3 expression vector
T1 sequence (P31428 17-384): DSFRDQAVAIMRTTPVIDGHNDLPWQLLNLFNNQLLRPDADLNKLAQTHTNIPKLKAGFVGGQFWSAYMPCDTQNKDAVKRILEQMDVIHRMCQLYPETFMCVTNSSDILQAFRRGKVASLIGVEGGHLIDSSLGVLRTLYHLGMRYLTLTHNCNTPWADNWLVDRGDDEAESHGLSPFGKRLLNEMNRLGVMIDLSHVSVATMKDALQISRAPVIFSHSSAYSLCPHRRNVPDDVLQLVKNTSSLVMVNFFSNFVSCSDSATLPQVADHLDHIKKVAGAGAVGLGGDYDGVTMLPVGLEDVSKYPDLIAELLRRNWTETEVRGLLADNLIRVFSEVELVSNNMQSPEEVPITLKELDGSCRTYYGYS
Description: The COS-1 cell line, which is known to have low or no detectable level of MDP activity, has been used extensively to study MDP structure and function (Keynan et al., supra, 1996; Keynan et al., Biochem, J. 326:47-51 (1997)). COS-1 cells were trasfected with murine MDP and used to assay binding to SEQ ID NOS: 1 and 2 as described below.
For transfection into COS-1 cells, a murine MDP expression vector was prepared as follows. Total mouse lung RNA was isolated using Qiagen RNA purification columns (Qiagen; Santa Clarita, Calif.) and used as a template for first strand cDNA synthesis with reverse transcriptase and a mixture of random hexamers and poly-dT oligonucleotides (GIBCO/BRL; Grand Island, N.Y.). Mouse MDP cDNA (Pasqualini et al., J. Cell Biol. 130:1189-1196 (1995)) was amplified from the cDNA pool by PCR using the oligonucleotide pair: […] (SEQ ID NO: 446), which contains a KpnI adaptor, and […] (SEQ ID NO: 447), which contains an XbaI adaptor, using Taq polymerase from GIBCO/BRL. The amplified 1.3 kb murine MDP cDNA was digested with KpnI and XbaI, and inserted into the same sites of the pcDNA3 expression vector (Invitrogen; Carlsbad, Calif.) using DNA restriction enzymes and T4 DNA ligase from New England Biolabs (Beverly, Mass.). Successful cloning of the murine MDP cDNA was confirmed by DNA sequencing. Transfection of the COS-1 cells was performed with the Superfect Reagent from Qiagen as recommended by the manufacturer.
Phage binding to COS-1 cells transfected with MDP was determined as follows. Briefly, 10^7 COS-1 cells were transfected with 10 μg of either the MDP expression vector or the vector alone. After 48 hours, cells were scraped gently from the dish, washed once, and subjected to the phage binding assay or membrane dipeptidase activity assay described above. For the phage binding assay, 5×10^6 cells and 10^10 transducing units (TU) of phage input were used. For measurement of membrane dipeptidase activity, 10^6 cells were lysed in 100 μl of PBS/octylglycoside without protease inhibitors. A 10 μl aliquot of the extract was used to measure MDP activity.

[8] = individually amplified phage, FIG. 2

SWCEPGWCR [pancreas homing peptide]
% OF MOTIF AMONG ALL CLONES ([1]; PANCREAS (value printed on the SKIN heading line)): 9% | pancreas/brain phage ratio ([1]; PANCREAS section, pancreas as compared to brain): 20 | phage bound to pancreas than to brain ([1]; individually amplified phage): 10 × and up to 20 × | enrichment of phage to the pancreas as compared to unselected phage ([1]; mouse, in vivo): 22 × | selectivity for pancreas over unselected phage and over brain ([1]; mouse, in vivo): 20 fold | phage recovered from uterus in comparison to unselected phage ([2]; after intravenous injection): 6 × | staining of uterus ([2]; immunostaining): some staining of blood vessels within the uterus | immunostaining of pancreas ([3]; 5 min after phage): staining in the capillaries and larger blood vessels of the exocrine pancreas | staining of lung and skin after pancreas homing phage ([3]; control tissues): nor was any staining observed in lung and skin

LMLPRAD [peptide from phage recovered from adrenal gland]
% OF MOTIF AMONG ALL CLONES ([4]; ADRENAL GLAND): 11% | adrenal gland/brain homing ratio ([4]; ADRENAL GLAND section, adrenal gland as compared to brain): 50 | enrichment in adrenal gland as compared to brain ([4]; mouse, in vivo): 50 fold

VKSVCRT [peptide from phage recovered from liver]
% OF MOTIF AMONG ALL CLONES [5]: 11%

WRQNMPL [peptide from phage recovered from liver]
% OF MOTIF AMONG ALL CLONES [5]: 6%

CGFELETC [lung homing peptide]
% OF MOTIF AMONG ALL CLONES ([6]; LUNG): 5% | LUNG/BRAIN RATIO ([6]; LUNG section): 9 | homing of lung homing phage to control kidney or brain ([6]; control organs): few phage detected in kidney or brain; also recorded: no selective homing to kidney or brain was detected | enriched in lung over unselected phage [6, 8]: 9 × | phage bound to lung than to brain [6, 8]: 20 × | phage bound to lung than to kidney [6, 8]: 12 × | enrichment in lung as compared to unselected phage ([6]; mouse, in vivo): 9 fold | phage bound to MDP transfected cells than to mock transfected cells [7]: also bound MDP transfected cells

SRRFVGG [peptide from phage recovered from liver]
% OF MOTIF AMONG ALL CLONES [5]: 6%
